{"source": "paper PMC2810227", "about": "“3-O-Methylfunicone, a Selective Inhibitor of Mammalian Y-Family DNA Polymerases from an Australian Sea Salt Fungal Strain” (Marine Drugs, 2009)", "key": {"[1]": {"system": "HeLa (cervix carcinoma cells)", "assay": "Cancer cell growth, MTT assay, HeLa", "type": "cell-based, human", "settings": "24 h", "procedure": "Figure 5. (A) Human cancer cell growth inhibition dose-response curves of 3-O-methyl-funicone (1). Various concentrations (0 to 150 μM) of compound 1 were incubated with human colon carcinoma (HCT116) cells (circle) and human cervix carcinoma (HeLa) cells (square) for 24 h. Rate of cell growth was determined by MTT assay as described in the Experimental section. Data are shown as the means ± SEM of five independent experiments. (B) Clonogenic survival of UV-treated HeLa cells by compound 1. Various concentrations (0 to 100 μM) of compound 1 were incubated with 10 J/m^2 UV-treated (closed circle) or untreated (open circle) HeLa cells. After 7 days, the number of colonies in each treatment group was counted. Values are the means ± SEM of two independent experiments.\nHuman colon carcinoma cell line, HCT116, was a kind gift from Dr. Bert Vogelstein (Johns Hopkins University, Baltimore, […], USA). Human cervix carcinoma cell line, HeLa, was obtained from Health Science Research Resources Bank (Osaka, Japan). The cells were maintained in McCoy’s 5A medium supplemented with 10% FBS, sodium bicarbonate (2 g/L) and streptomycin (100 μg/mL). The cells were cultured at 37 °C in standard medium in a humidified atmosphere of 5% CO2-95% air. […] After incubation for 24 h, the survival rate was determined by MTT (3-(4,5-dimethylthiazol-2-yl)-2,5-diphenyl tetrazolium bromide) assay."}, "cauliflower pol α": {"system": "cauliflower pol α", "assay": "DNA polymerase assay, plant pol α", "type": "biochemical", "settings": "100 μM", "description": "(§1) Pol α was purified from calf thymus by immuno-affinity column chromatography, as described by Tamai et al.. Recombinant rat pol β was purified from E. coli JMpβ5, as described by Date et al.. The human pol γ catalytic gene was cloned into pFastBac. Histidine-tagged enzyme was expressed using the BAC-TO-BAC HT Baculovirus Expression System according to the supplier’s manual (Life Technologies, MD, USA) and purified using ProBoundresin (Invitrogen Japan, Tokyo, Japan). Human pols δ and ɛ were purified by nuclear fractionation of human peripheral blood cancer cells (Molt-4) using the second subunit of pols δ and ɛ-conjugated affinity column chromatography, respectively. A truncated form of human pol η (residues 1–511) tagged with His6 at its C-terminal was expressed in E. coli cells and purified as described by Kusumoto et al.. A recombinant mouse pol ι tagged with His6 at its C-terminal was expressed and purified by Ni-NTA column chromatography as described elsewhere (Masutani et al., in preparation). […]\n(§2) The compounds were dissolved in distilled dimethyl sulfoxide (DMSO) at various concentrations and sonicated for 30 sec. […] Activity without the inhibitor was considered 100%, and the remaining activity at each concentration of the inhibitor was determined relative to this value. […]"}, "human pol κ": {"target": "T1, human pol κ (Homo sapiens, UniProt Q9UBT6)", "T1 construct": "A truncated form of pol κ (residues 1–560) with 6 x His-tags attached at the C-terminus; 6xHis (C); made in house; host or cells: E. coli", "T1 sequence (Q9UBT6 1-560)": "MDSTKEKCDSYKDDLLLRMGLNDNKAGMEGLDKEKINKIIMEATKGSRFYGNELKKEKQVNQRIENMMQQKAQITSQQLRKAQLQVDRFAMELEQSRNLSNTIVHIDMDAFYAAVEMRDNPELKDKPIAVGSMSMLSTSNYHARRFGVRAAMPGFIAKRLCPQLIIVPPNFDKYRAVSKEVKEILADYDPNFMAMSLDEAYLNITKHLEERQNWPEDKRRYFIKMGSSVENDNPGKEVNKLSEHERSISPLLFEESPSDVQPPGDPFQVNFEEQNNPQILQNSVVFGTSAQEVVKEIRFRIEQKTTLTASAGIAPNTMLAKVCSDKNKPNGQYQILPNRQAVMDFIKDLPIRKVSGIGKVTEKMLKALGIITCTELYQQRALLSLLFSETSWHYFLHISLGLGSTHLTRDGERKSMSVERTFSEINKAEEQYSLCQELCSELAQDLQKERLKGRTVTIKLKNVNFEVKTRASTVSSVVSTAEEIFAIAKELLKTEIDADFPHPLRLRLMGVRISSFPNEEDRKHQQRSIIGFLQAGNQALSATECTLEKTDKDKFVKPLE", "assay": "DNA polymerase assay, pol κ", "type": "biochemical", "description": "as §1, §2"}}, "data": [{"molecule": "C/C=C/c1occ(C(=O)c2c(OC)cc(OC)cc2C(=O)OC)c(=O)c1OC", "note": "[compound 1, 3-O-methylfunicone]", "values": [{"measurement": "LD50, cell growth", "setting": "[1]", "result": 63.3, "unit": "µM"}, {"measurement": "effect on cauliflower pol α activity", "setting": "cauliflower pol α", "result": "no effect"}, {"measurement": "effect on pol κ activity", "setting": "human pol κ; 100 μM", "result": "selectively inhibit"}, {"measurement": "IC50", "setting": "human pol κ; poly(dA)/oligo(dT)18 and dTTP, 0.05 units enzyme, read-out: 50% inhibition of pol κ (IC50)", "result": 12.5, "unit": "µM"}]}]}
